# In patent publication US11000033B2, “Ketone or oxime compound, and herbicide” (NISSAN CHEMICAL CORPORATION, priority 2014, dated 2021):
# Experiments:
# Assay type in all cases: in vivo
# Digitaria ciliaris [1] = experiment: Test Example 5: herbicidal effect by foliage application, plastic box (symbol F); settings: 320 g/ha, 3 weeks after application
# In short: (§1)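 Seeds were sown in sterilized diluvial soil, covered with about 1.5 cm of soil and grown 14 days in a greenhouse at 25° C. to 30° C. An emulsifiable formulation diluted in water to a set rate was sprayed over foliage, and injury was scored 3 weeks later.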
# Avena fatua = experiment: Test Example 4: herbicidal effect by soil treatment (symbol I); settings: application herbicide amount 320 g/ha
# In short: (§2)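 Seeds were sown in sterilized diluvial soil, covered with about 1.5 cm of soil, and the soil surface was sprayed with a water-diluted emulsion of the compound at a predetermined rate. Plants grew in a greenhouse at 25° C. to 30° C.; effects were scored visually 3 weeks after application.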
# Chenopodium album = experiment: Test Example 5: herbicidal effect by foliage application, plastic box (symbol O); settings: 320 g/ha, 3 weeks after application
# In short: as §1
# Digitaria ciliaris [2] = experiment: Test Example 4: herbicidal effect by soil treatment (symbol F); settings: application herbicide amount 320 g/ha
# In short: as §2
# [3] = tested on: Echinochloa crus-galli var. crus-galli; experiment: Test Example 3: herbicidal effect by foliage application, Wagner pot (symbol H); settings: application herbicide amount 320 g/ha
# In short: (§3)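 Foliar spray of water-diluted emulsion formulation at a predetermined herbicide amount onto 14-day-old plants in flooded alluvial soil (water depth 0.1–0.5 cm), greenhouse 25–30 °C; rice sown alongside. Scored 3 wk post-application on set criteria.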
# rice plant = experiment: Test Example 5: effect on crop by foliage application, plastic box (symbol b); settings: 320 g/ha, 3 weeks after application
# In short: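 Sterilized diluvial soil, plastic box (21 × 13 × 7 cm); spot sowing, ~1.5 cm soil cover; greenhouse 25–30° C.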
# Setaria viridis [4] = experiment: Test Example 4: herbicidal effect by soil treatment (symbol G); settings: application herbicide amount 320 g/ha
# In short: as §2
# Stellaria media = experiment: Test Example 5: herbicidal effect by foliage application, plastic box (symbol P); settings: 320 g/ha, 3 weeks after application
# In short: as §1
# [5] = tested on: Echinochloa oryzacola Vasing.; experiment: Test Example 1: herbicidal activity, application before weed generation in submerged conditions (symbol A); settings: application herbicide amount 320 g/ha
# In short: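 Weeds are sown into submerged alluvial soil alongside transplanted 2.5-leaf rice, and the compound, as an emulsion diluted to a set rate, is applied onto the water before emergence. Rating on the 0–5 herbicidal-ratio scale follows 3 weeks of greenhouse growth at 25–30 °C.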
# Amaranthus retroflexus = experiment: Test Example 4: herbicidal effect by soil treatment (symbol N); settings: application herbicide amount 320 g/ha
# In short: as §2
# Abutilon theophrasti = experiment: Test Example 5: herbicidal effect by foliage application, plastic box (symbol M); settings: 320 g/ha, 3 weeks after application
# In short: as §1
# Leptochloa chinensis = experiment: Test Example 3: herbicidal effect by foliage application, Wagner pot (symbol D); settings: application herbicide amount 320 g/ha
# In short: as §3
# Setaria viridis [6] = experiment: Test Example 5: herbicidal effect by foliage application, plastic box (symbol G); settings: 320 g/ha, 3 weeks after application
# In short: as §1
# Veronica persica = experiment: Test Example 4: herbicidal effect by soil treatment (symbol R); settings: application herbicide amount 320 g/ha
# In short: as §2
# Lolium multiflorum Lam. = experiment: Test Example 5: herbicidal effect by foliage application, plastic box (symbol K); settings: 320 g/ha, 3 weeks after application
# In short: as §1
# Alopecurus myosuroides = experiment: Test Example 4: herbicidal effect by soil treatment (symbol J); settings: application herbicide amount 320 g/ha
# In short: as §2
# Apera spica-venti = experiment: Test Example 5: herbicidal effect by foliage application, plastic box (symbol L); settings: 320 g/ha, 3 weeks after application
# In short: as §1
# rapeseed = experiment: Test Example 4: effect on crop by soil treatment (symbol g); settings: application herbicide amount 320 g/ha
# In short: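 Grown at 25° C. to 30° C. in a greenhouse, the crops came from seed sown spot-wise in sterilized diluvial soil under roughly 1.5 cm of covering soil.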
SMILES,"F: Digitaria ciliaris, herbicidal effect grade (Digitaria ciliaris [1])","I: Avena fatua, herbicidal effect grade (Avena fatua)","O: Chenopodium album, herbicidal effect grade (Chenopodium album)","F: Digitaria ciliaris, herbicidal effect grade (Digitaria ciliaris [2])","herbicidal effect on H (Echinochloa crus-galli var. crus-galli), grade 0-5 [3]","b: directly sowed rice plant, effect on crop grade (rice plant)","G: Setaria viridis, herbicidal effect grade (Setaria viridis [4])","P: Stellaria media, herbicidal effect grade (Stellaria media)","Herbicidal effect grade, A: Echinochloa oryzacola Vasing. [5]","N: Amaranthus retroflexus, herbicidal effect grade (Amaranthus retroflexus)","M: Abutilon theophrasti, herbicidal effect grade (Abutilon theophrasti)","herbicidal effect on D (Leptochloa chinensis), grade 0-5 (Leptochloa chinensis)","G: Setaria viridis, herbicidal effect grade (Setaria viridis [6])","R: Veronica persica, herbicidal effect grade (Veronica persica)","K: Lolium multiflorum Lam., herbicidal effect grade (Lolium multiflorum Lam.)","J: Alopecurus myosuroides, herbicidal effect grade (Alopecurus myosuroides)","L: Apera spica-venti, herbicidal effect grade (Apera spica-venti)","g: rapeseed, effect on crop grade (rapeseed)"
CON=C(C)CC1CC(O)=C(c2c(C)cc(-c3ccc(C(F)(F)F)cc3)cc2C)C1=O (mixture of isomers) [6-016],5 (Herbicidal ratio of 90% or more (almost completely withered)),0 (Herbicidal ratio of 5% or lower (almost no effect)),3 (Herbicidal ratio of 40% or higher and lower than 70%),5 (Herbicidal ratio of 90% or more (almost completely withered)),5 (Herbicidal ratio of 90% or more (almost completely withered)),5 (Herbicidal ratio of 90% or more (almost completely withered)),5 (Herbicidal ratio of 90% or more (almost completely withered)),0 (Herbicidal ratio of 5% or lower (almost no effect)),5 (Herbicidal ratio of 90% or more (almost completely withered)),2 (Herbicidal ratio of 20% or higher and lower than 40%),0 (Herbicidal ratio of 5% or lower (almost no effect)),5 (Herbicidal ratio of 90% or more (almost completely withered)),5 (Herbicidal ratio of 90% or more (almost completely withered)),0 (Herbicidal ratio of 5% or lower (almost no effect)),5 (Herbicidal ratio of 90% or more (almost completely withered)),0 (Herbicidal ratio of 5% or lower (almost no effect)),5 (Herbicidal ratio of 90% or more (almost completely withered)),0 (Herbicidal ratio of 5% or lower (almost no effect))
CCCC(=O)C(C(=O)OC)C1CC(O)=C(c2c(C)cc(C)cc2C)C1=O (stereo not drawn) [2-020],3 (Herbicidal ratio of 40% or higher and lower than 70%),0 (Herbicidal ratio of 5% or lower (almost no effect)),0 (Herbicidal ratio of 5% or lower (almost no effect)),5 (Herbicidal ratio of 90% or more (almost completely withered)),2 (Herbicidal ratio of 20% or higher and lower than 40%),4 (Herbicidal ratio of 70% or higher and lower than 90%),5 (Herbicidal ratio of 90% or more (almost completely withered)),0 (Herbicidal ratio of 5% or lower (almost no effect)),2 (Herbicidal ratio of 20% or higher and lower than 40%),1 (Herbicidal ratio of 5% or higher and lower than 20%),0 (Herbicidal ratio of 5% or lower (almost no effect)),2 (Herbicidal ratio of 20% or higher and lower than 40%),5 (Herbicidal ratio of 90% or more (almost completely withered)),0 (Herbicidal ratio of 5% or lower (almost no effect)),5 (Herbicidal ratio of 90% or more (almost completely withered)),0 (Herbicidal ratio of 5% or lower (almost no effect)),0 (Herbicidal ratio of 5% or lower (almost no effect)),0 (Herbicidal ratio of 5% or lower (almost no effect))
CON=CC1CC(O)=C(c2c(C)cc(C)cc2C)C1=O (mixture of isomers) [3-001],4 (Herbicidal ratio of 70% or higher and lower than 90%),0 (Herbicidal ratio of 5% or lower (almost no effect)),0 (Herbicidal ratio of 5% or lower (almost no effect)),2 (Herbicidal ratio of 20% or higher and lower than 40%),3 (Herbicidal ratio of 40% or higher and lower than 70%),4 (Herbicidal ratio of 70% or higher and lower than 90%),0 (Herbicidal ratio of 5% or lower (almost no effect)),0 (Herbicidal ratio of 5% or lower (almost no effect)),0 (Herbicidal ratio of 5% or lower (almost no effect)),0 (Herbicidal ratio of 5% or lower (almost no effect)),0 (Herbicidal ratio of 5% or lower (almost no effect)),2 (Herbicidal ratio of 20% or higher and lower than 40%),3 (Herbicidal ratio of 40% or higher and lower than 70%),0 (Herbicidal ratio of 5% or lower (almost no effect)),4 (Herbicidal ratio of 70% or higher and lower than 90%),1 (Herbicidal ratio of 5% or higher and lower than 20%),3 (Herbicidal ratio of 40% or higher and lower than 70%),0 (Herbicidal ratio of 5% or lower (almost no effect))
Cc1cc(C)c(C2=C(O)CC(CC(=O)C(C)(C)C)C2=O)c(C)c1 (stereo not drawn) [2-022],0 (Herbicidal ratio of 5% or lower (almost no effect)),0 (Herbicidal ratio of 5% or lower (almost no effect)),0 (Herbicidal ratio of 5% or lower (almost no effect)),0 (Herbicidal ratio of 5% or lower (almost no effect)),1 (Herbicidal ratio of 5% or higher and lower than 20%),5 (Herbicidal ratio of 90% or more (almost completely withered)),4 (Herbicidal ratio of 70% or higher and lower than 90%),0 (Herbicidal ratio of 5% or lower (almost no effect)),1 (Herbicidal ratio of 5% or higher and lower than 20%),0 (Herbicidal ratio of 5% or lower (almost no effect)),0 (Herbicidal ratio of 5% or lower (almost no effect)),4 (Herbicidal ratio of 70% or higher and lower than 90%),0 (Herbicidal ratio of 5% or lower (almost no effect)),0 (Herbicidal ratio of 5% or lower (almost no effect)),5 (Herbicidal ratio of 90% or more (almost completely withered)),0 (Herbicidal ratio of 5% or lower (almost no effect)),2 (Herbicidal ratio of 20% or higher and lower than 40%),0 (Herbicidal ratio of 5% or lower (almost no effect))
